For test [1], the target named is Tyrosine-protein kinase Fer (Homo sapiens) (UniProt P16591). The experiment in a line: Inhibition of Fer at 0.1 uM; values are per cent of control.
The target of test [2] is T1, Protein kinase C iota type (Homo sapiens) (UniProt P41743).
T1 sequence (whole entry): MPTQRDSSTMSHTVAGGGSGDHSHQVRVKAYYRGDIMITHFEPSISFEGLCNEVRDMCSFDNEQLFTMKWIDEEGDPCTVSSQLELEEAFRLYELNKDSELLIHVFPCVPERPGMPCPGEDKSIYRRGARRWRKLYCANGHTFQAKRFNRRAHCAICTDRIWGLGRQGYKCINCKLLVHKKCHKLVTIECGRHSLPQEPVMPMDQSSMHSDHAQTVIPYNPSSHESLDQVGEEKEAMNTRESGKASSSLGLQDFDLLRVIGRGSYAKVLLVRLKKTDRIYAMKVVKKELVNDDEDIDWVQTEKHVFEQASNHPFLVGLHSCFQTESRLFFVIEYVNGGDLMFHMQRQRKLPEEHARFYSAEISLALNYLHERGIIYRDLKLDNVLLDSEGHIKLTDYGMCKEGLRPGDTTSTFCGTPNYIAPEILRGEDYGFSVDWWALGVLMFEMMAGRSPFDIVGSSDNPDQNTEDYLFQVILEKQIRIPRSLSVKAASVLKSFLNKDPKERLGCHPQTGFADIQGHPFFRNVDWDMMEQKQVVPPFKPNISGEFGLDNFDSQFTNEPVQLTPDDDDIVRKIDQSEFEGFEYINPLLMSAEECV
The test is described as follows: Inhibition of PKCiota at 1 uM; values are per cent of control.

Test [3] deals with High affinity nerve growth factor receptor (Homo sapiens) (UniProt P04629). The test is described as follows: Inhibition of TrkA at 1 uM; values are per cent of control.
The target in test [4] is T2, Dual specificity mitogen-activated protein kinase kinase 6 (Homo sapiens) (UniProt P52564).
T2 sequence (whole entry): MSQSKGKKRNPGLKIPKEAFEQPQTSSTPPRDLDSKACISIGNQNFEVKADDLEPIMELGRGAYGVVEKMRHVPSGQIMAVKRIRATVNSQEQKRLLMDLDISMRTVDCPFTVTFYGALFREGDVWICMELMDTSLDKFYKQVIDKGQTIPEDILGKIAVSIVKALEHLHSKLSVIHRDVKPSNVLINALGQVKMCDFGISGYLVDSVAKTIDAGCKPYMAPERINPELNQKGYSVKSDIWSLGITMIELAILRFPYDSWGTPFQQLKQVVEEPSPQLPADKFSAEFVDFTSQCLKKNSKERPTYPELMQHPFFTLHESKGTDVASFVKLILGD
The test is described as follows: Inhibition of MKK6 at 1 uM; values are per cent of control.

Test [5] concerns the target T3, Tyrosine-protein kinase ITK/TSK (Homo sapiens) (UniProt Q08881).
T3 sequence (whole entry): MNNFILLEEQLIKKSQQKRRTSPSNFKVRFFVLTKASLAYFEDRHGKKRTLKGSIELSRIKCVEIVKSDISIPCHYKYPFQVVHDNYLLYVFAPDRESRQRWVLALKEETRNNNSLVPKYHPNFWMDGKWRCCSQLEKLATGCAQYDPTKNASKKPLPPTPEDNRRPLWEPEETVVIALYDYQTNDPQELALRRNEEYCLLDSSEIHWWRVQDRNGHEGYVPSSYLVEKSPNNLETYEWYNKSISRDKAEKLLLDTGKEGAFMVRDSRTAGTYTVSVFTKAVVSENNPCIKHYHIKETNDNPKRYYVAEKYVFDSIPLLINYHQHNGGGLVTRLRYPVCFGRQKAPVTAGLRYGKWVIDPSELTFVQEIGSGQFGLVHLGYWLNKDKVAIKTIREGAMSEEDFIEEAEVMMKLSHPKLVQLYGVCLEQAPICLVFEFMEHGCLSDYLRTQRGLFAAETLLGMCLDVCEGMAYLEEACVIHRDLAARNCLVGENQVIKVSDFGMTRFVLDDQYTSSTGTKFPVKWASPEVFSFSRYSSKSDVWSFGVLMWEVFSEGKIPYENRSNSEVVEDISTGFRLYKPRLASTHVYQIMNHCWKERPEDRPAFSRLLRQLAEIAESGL
The experiment in a line: Inhibition of Itk at 1 uM; values are per cent of control.

Test [6] has as its target Tyrosine-protein kinase HCK (Homo sapiens) (UniProt P08631). The experiment in a line: Inhibition of Hck at 0.1 uM; values are per cent of control.
The target in test [7] is RAC-alpha serine/threonine-protein kinase (Homo sapiens) (UniProt P31749). The test is described as follows: Inhibition of PKBalpha at 1 uM; values are per cent of control.
Test [8] concerns the target Death-associated protein kinase 2 (Homo sapiens) (UniProt Q9UIK4). The experiment in a line: Inhibition of DAPK2 at 1 uM; values are per cent of control.
The target in test [9] is T4, Serine/threonine-protein kinase STK11 (Homo sapiens) (UniProt Q15831).
T4 sequence (whole entry): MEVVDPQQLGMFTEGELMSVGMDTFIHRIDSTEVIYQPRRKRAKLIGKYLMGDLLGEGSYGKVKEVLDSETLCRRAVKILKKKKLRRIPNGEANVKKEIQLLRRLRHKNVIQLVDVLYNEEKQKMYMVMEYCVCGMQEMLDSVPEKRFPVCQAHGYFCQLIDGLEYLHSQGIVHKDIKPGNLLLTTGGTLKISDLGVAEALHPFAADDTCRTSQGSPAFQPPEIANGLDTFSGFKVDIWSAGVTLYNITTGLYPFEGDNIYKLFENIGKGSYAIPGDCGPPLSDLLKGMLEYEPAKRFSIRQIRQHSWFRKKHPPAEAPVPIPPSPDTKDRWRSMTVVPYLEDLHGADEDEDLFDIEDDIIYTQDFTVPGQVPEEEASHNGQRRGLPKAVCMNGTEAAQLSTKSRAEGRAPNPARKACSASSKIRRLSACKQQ
The experiment in a line: Inhibition of LKB1 at 0.1 uM; values are per cent of control.

The target of test [10] is CDK6/cyclin D3 (Homo sapiens) (UniProt P30281+Q00534). The test is described as follows: Inhibition of CDK6/cyclin D3 at 1 uM; values are per cent of control.
Test [11] has as its target BDNF/NT-3 growth factors receptor (Homo sapiens) (UniProt Q16620). The experiment in a line: Inhibition of TrkB at 0.1 uM; values are per cent of control.
Test [12] addresses High affinity nerve growth factor receptor (Homo sapiens) (UniProt P04629). The experiment in a line: Inhibition of TrkA at 0.1 uM; values are per cent of control.

Molecules are shown by their SMILES.

High affinity nerve growth factor receptor (Homo sapiens), sequence (P04629 33-796 limits assumed): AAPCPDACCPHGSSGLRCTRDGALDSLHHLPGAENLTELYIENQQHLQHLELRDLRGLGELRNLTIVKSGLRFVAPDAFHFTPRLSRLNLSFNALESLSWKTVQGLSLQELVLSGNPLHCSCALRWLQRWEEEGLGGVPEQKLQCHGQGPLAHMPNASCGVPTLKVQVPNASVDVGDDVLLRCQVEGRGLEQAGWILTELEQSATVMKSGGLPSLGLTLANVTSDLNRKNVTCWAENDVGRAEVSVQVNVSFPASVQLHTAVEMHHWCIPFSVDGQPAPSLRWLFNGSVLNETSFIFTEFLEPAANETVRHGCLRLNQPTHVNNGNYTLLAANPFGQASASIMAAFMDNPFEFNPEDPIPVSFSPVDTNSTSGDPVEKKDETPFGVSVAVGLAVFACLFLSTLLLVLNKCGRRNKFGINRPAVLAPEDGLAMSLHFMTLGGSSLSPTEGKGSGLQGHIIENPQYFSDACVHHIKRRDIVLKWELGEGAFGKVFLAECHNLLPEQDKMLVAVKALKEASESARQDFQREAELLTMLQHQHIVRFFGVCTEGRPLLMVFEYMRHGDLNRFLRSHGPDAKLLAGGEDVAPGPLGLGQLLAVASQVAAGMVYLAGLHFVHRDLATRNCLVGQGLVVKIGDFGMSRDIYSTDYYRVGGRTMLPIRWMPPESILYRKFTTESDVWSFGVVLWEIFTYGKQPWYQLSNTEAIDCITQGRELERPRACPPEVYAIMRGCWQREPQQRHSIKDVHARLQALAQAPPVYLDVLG
RAC-alpha serine/threonine-protein kinase (Homo sapiens), sequence (P31749 whole entry): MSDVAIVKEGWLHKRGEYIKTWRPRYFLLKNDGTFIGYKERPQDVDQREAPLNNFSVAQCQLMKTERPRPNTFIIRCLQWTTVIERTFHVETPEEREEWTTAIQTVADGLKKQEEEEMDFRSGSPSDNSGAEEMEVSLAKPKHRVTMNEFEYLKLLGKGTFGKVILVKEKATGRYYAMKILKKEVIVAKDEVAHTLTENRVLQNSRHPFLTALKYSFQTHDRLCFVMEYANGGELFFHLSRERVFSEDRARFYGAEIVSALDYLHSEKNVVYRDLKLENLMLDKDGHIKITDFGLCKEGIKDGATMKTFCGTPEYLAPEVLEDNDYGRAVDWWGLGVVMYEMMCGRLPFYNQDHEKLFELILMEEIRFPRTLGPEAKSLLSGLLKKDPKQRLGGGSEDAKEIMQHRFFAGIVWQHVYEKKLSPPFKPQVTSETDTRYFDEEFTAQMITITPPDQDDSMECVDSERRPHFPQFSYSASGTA
Death-associated protein kinase 2 (Homo sapiens), sequence (Q9UIK4 whole entry, looked up): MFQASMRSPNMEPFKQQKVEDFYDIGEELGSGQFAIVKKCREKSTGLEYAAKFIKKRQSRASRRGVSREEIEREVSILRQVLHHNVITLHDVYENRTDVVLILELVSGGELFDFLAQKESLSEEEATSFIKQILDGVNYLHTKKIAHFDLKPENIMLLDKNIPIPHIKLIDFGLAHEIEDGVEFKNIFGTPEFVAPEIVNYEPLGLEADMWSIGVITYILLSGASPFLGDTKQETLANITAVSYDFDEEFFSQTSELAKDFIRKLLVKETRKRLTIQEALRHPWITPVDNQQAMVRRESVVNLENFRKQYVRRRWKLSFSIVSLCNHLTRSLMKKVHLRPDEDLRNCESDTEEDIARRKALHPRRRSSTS
BDNF/NT-3 growth factors receptor (Homo sapiens), sequence (Q16620 32-822 limits assumed): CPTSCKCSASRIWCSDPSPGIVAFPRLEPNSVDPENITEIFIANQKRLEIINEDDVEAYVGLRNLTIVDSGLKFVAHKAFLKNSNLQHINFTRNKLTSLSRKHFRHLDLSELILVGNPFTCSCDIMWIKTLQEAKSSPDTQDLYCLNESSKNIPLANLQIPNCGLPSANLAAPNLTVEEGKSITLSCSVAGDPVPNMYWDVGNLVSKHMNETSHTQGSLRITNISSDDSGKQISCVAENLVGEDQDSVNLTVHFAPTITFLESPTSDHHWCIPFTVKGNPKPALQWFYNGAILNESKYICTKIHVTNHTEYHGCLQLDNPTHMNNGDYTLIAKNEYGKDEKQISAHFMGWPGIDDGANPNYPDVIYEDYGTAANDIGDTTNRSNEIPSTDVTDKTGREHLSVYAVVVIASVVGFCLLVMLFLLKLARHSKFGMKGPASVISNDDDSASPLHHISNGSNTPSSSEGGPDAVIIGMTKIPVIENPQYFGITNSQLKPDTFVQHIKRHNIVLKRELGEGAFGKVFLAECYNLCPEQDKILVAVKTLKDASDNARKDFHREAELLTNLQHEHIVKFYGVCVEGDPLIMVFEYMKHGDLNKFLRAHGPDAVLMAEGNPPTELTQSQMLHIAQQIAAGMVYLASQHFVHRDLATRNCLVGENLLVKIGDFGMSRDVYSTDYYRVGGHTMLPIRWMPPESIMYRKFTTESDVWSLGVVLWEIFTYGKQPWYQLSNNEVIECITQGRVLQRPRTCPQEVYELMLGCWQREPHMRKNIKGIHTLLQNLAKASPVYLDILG
Tyrosine-protein kinase Fer (Homo sapiens), sequence (P16591 whole entry, looked up): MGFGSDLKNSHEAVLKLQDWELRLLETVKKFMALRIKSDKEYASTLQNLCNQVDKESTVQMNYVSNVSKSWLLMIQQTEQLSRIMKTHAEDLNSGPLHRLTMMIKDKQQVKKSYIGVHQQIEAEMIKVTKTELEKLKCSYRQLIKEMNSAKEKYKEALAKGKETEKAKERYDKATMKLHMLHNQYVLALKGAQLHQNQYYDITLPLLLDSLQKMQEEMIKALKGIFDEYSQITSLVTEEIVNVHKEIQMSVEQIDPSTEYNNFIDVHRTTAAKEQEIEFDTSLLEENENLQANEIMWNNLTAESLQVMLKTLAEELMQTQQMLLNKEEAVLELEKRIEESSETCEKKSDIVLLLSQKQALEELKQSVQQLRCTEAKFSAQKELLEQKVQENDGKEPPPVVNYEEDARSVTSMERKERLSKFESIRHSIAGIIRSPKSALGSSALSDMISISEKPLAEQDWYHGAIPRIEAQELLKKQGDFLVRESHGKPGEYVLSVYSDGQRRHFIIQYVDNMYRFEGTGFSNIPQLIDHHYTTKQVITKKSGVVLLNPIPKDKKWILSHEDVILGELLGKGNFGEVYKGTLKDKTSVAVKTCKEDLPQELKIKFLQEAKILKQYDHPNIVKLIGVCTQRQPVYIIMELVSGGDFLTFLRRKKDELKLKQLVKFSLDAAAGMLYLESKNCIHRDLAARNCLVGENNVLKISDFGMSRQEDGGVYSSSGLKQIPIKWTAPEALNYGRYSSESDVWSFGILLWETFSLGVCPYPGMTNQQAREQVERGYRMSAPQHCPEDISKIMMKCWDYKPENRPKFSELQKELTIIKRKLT
Tyrosine-protein kinase HCK (Homo sapiens), sequence (P08631 2-526 limits assumed): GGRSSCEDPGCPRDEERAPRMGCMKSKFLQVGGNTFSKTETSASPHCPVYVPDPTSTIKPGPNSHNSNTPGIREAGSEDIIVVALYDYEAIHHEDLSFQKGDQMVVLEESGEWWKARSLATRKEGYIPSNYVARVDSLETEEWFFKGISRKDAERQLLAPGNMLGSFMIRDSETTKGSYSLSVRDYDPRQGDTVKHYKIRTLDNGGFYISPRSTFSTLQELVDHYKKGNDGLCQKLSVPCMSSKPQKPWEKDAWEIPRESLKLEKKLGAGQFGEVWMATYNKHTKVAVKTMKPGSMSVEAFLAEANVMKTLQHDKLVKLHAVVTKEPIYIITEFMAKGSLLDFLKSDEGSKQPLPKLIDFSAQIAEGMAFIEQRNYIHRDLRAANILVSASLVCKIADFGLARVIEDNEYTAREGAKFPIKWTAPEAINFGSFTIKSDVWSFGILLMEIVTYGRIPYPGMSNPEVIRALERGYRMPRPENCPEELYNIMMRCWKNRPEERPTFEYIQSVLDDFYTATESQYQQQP

Turning to `Cc1ccc2cc(-c3n[nH]c4ccc(NC5CCNC5)cc34)[nH]c2c1` (centres undefined), the residual activity came to 5% in [1]; 76% in test [2]; 0% in [3]; 15% in test [4]; 2% in test [5]; 15% in test [6]. Also, the residual activity in test [7] was 69%; in test [8] it was 61%; in test [9], 104%; in [10], 33%; in test [11], 2%; in [12], -1%.

For the compound `Cc1ccc2cc(-c3n[nH]c4ccc(NC5CCN(Cc6ccccc6)CC5)cc34)[nH]c2c1`, the residual activity in test [1] stood at 49%; in test [2], 90%; in test [3], 2%; in test [4] it was 85%; in [5], 7%; in test [6], 61%. For the same compound, the residual activity in test [7] was found to be 86%; in [8], 112%; in test [9] it was 97%; in test [10] it was 46%; in test [11], 1%; in test [12] it was 10%.

Source of the values: ChEMBL document CHEMBL1681705, “Optimisation of ITK inhibitors through successive iterative design cycles” (Bioorg Med Chem Lett, 2011).
